According to ChEMBL document CHEMBL5360673, “2B Determined: The Future of the Serotonin Receptor 2B in Drug Discovery” (J Med Chem, 2023):

Legend:
[1] = biological target: T1, 5-hydroxytryptamine receptor 2B (Homo sapiens, UniProt P41595); experiment: Binding affinity to 5-HT2B receptor (unknown origin)
[2] = Selectivity ratio, […] for 5-HT2B (unknown origin)
[3] = biological target: T1, 5-hydroxytryptamine receptor 2B; experiment: Agonist activity at 5-HT2B receptor (unknown origin) assessed as stimulation of phospho-inositide hydrolysis by IP hydrolysis assay; format: functional
[4] = biological target: T1, 5-hydroxytryptamine receptor 2B; experiment: Agonist activity at 5-HT2B receptor (unknown origin) assessed as stimulation of intracellular calcium level by calcium mobilization assay; format: functional, cell-based
[5] = biological target: T1, 5-hydroxytryptamine receptor 2B; experiment: Agonist activity at 5-HT2B receptor (unknown origin) assessed as stimulation of […] by calcium mobilization assay; format: functional
[6] = biological target: T1, 5-hydroxytryptamine receptor 2B; experiment: Displacement of [3H]-LSD from human 5-HT2B receptor assessed as inhibition constant
Cytochrome P450 2C9 = Cytochrome P450 2C9 (Homo sapiens, UniProt P11712); experiment: Inhibition of CYP2C9 (unknown origin); format: ADME
Cytochrome P450 1A2 = biological target: T2, Cytochrome P450 1A2 (Homo sapiens, UniProt P05177); experiment: Inhibition of CYP1A2 (unknown origin); format: ADME
T2 sequence (P05177 whole entry): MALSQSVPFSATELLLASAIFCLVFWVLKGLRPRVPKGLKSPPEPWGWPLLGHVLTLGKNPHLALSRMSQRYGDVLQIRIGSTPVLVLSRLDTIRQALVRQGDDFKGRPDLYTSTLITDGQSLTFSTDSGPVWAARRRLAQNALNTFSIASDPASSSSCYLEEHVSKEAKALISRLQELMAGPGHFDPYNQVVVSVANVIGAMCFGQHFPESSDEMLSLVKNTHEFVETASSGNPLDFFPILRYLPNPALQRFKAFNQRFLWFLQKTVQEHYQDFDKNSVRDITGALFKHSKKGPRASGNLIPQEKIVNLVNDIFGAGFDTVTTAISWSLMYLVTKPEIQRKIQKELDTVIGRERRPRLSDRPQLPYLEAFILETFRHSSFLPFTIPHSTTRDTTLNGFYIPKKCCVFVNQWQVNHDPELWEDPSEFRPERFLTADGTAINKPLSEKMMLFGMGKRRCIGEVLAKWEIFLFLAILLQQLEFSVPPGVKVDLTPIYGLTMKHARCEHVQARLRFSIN

Cytochrome P450 3A4 = Cytochrome P450 3A4 (Homo sapiens, UniProt P08684); experiment: Inhibition of CYP3A4 (unknown origin); format: ADME
[7] = Half life in ip dosed C57BL/6 mouse; format: ADME, organism-based; settings: in vivo
[8] = Cmax in ip dosed C57BL/6 mouse; format: ADME, organism-based; design: route ip; settings: in vivo
[9] = Ratio of drug concentration in brain to plasma of C57BL/6 mouse administered intraperitoneally and measured for 0.25 to 24 hrs; format: ADME; settings: time 0.25-24 hrs, route ip, read-out: BPR
Cytochrome P450 2D6 = Cytochrome P450 2D6 (Homo sapiens, UniProt P10635); experiment: Inhibition of CYP2D6 (unknown origin); format: ADME
Chain of Cytochrome P450 2D6 (P10635 whole entry): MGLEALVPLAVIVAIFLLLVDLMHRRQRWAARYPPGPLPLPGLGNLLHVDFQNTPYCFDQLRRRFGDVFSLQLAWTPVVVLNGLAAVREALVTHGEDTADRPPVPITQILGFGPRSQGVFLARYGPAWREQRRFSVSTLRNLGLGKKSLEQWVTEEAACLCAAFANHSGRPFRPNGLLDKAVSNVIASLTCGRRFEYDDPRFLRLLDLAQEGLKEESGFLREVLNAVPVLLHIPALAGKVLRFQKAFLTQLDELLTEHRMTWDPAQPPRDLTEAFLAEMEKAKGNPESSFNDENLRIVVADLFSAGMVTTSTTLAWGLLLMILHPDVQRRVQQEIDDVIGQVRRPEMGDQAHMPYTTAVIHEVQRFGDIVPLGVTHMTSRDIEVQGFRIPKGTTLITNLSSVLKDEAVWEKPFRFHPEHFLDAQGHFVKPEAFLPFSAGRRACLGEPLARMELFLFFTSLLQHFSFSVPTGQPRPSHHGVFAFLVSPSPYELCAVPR

T1 sequence (P41595 whole entry): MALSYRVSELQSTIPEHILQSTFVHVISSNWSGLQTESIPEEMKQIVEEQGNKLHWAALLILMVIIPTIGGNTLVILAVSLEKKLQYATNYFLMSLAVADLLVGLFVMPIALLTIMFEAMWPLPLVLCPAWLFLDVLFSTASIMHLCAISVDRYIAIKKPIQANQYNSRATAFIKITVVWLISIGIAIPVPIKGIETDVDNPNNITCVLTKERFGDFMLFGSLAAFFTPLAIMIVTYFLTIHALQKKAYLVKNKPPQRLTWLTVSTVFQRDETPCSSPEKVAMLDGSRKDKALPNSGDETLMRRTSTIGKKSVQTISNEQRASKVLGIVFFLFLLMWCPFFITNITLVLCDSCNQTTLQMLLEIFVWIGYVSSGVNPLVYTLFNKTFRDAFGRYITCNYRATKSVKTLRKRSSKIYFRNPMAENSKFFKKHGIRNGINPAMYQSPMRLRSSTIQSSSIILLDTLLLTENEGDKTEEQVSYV
Chain of Cytochrome P450 2C9 (P11712 whole entry): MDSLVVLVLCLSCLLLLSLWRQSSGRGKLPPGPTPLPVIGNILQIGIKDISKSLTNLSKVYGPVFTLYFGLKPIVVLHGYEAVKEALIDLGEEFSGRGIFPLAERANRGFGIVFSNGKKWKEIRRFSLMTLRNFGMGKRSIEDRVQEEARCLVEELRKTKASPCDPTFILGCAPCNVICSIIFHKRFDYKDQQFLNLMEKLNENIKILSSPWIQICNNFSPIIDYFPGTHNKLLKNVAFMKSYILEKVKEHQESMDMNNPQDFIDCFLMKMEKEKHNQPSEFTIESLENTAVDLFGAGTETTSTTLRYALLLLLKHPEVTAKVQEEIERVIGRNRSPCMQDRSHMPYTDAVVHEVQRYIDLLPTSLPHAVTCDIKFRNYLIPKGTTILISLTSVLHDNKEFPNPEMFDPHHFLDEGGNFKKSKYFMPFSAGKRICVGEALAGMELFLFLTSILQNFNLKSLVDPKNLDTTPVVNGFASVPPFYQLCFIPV
Chain of Cytochrome P450 3A4 (P08684 whole entry): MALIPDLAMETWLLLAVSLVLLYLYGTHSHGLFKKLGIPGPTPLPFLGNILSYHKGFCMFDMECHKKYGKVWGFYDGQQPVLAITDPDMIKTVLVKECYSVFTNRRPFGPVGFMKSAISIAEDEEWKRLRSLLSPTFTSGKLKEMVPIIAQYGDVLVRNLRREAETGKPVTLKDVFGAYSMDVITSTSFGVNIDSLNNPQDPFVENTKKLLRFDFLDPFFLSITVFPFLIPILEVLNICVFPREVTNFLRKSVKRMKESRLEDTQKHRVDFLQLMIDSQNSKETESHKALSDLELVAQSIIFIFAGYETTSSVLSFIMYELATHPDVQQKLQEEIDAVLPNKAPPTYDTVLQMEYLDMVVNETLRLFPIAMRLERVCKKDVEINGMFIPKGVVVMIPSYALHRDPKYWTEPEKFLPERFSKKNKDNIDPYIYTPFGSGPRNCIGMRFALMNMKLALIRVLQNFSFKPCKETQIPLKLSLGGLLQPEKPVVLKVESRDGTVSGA

Cc1cc(NC(=O)Nc2ccc3c(ccn3C)c2)sn1
Ki [1]: 11.2 nM | Selectivity ratio [2]: > 135

C[C@H](N)Cc1cccc(C(F)(F)F)c1 [NORDEXFENFLURAMINE]
EC50 [3]: 23 nM | EC50 [4]: 23 nM | EC50 [5]: 23 nM

O=C1[C@@H]2[C@@H]3C[C@@H](C[C@H]3O)[C@@H]2C(=O)N1C[C@@H]1CCCC[C@H]1CN1CCN(c2nsc3ccccc23)CC1
Ki [6]: 24 nM

Cn1ccc2cc(-n3c(=O)[nH]c4sc5c(c4c3=O)CCCC5)ccc21
IC50 (Cytochrome P450 2C9): > 30000 nM | IC50 (Cytochrome P450 1A2): > 30000 nM | IC50 (Cytochrome P450 3A4): > 30000 nM | half-life [7]: 42 min | Cmax [8]: 43000 ng/mL | Kp [9]: 0.01 | IC50 (Cytochrome P450 2D6): > 30000 nM
